Test results reported in the supplement of paper PMC10307832.

Tests used:
Assay in all cases: relative viability (nuclei count vs DMSO), 5 days (fraction); higher = more cells survive
NCI-H520 = tested on: NCI-H520
Outline: (§1)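 Values are medians from duplicate plates. Each reflects relative viability, defined as the nuclei count of treated wells over that of vehicle wells. Lung cancer cell lines in 1536-well plates were pin-tool dosed one day after seeding with one drug alone or with a fixed anchor-drug dose plus five library-drug doses (not always all listed) in √10 steps, then fixed, stained and imaged at 4× after 5 days.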

NCI-H1650 = tested on: NCI-H1650
Outline: as §1

NCI-H1793 = tested on: NCI-H1793
Outline: as §1

NCI-H2347 = tested on: NCI-H2347
Outline: as §1

NCI-H1993 = tested on: NCI-H1993
Outline: as §1

NCI-H2228 = tested on: NCI-H2228
Outline: as §1

LC-2-ad = tested on: LC-2-ad
Outline: as §1

BEN = tested on: BEN
Outline: as §1

LU99A = tested on: LU99A
Outline: as §1

NCI-H1355 = tested on: NCI-H1355
Outline: as §1

NCI-H650 = tested on: NCI-H650
Outline: as §1

A-427 = tested on: A-427
Outline: as §1

EKVX = tested on: EKVX
Outline: as §1

NCI-H23 = tested on: NCI-H23
Outline: as §1

NCI-H1666 = tested on: NCI-H1666
Outline: as §1

NCI-H838 = tested on: NCI-H838
Outline: as §1

SW 1573 = tested on: SW 1573
Outline: as §1

LOU-NH91 = tested on: LOU-NH91
Outline: as §1

LCLC-97TM1 = tested on: LCLC-97TM1
Outline: as §1

PC-3 [JPC-3] = tested on: PC-3 [JPC-3]
Outline: as §1

NCI-H460 = tested on: NCI-H460
Outline: as §1

RERF-LC-KJ = tested on: RERF-LC-KJ
Outline: as §1

NCI-H1915 = tested on: NCI-H1915
Outline: as §1

Compound `O=c1[nH]c2ccccc2n1C1CCN(CCCC(c2ccc(F)cc2)c2ccc(F)cc2)CC1` [Pimozide] + COc1cccc2cc(-c3nc([C@H]4CC[C@H](C(=O)O)CC4)n4ncnc(N)c34)[nH]c12 [OSI-027] (partner 0.5 µM) has a relative viability (NCI-H520; first compound 0.08 µM) of 0.24, a relative viability (NCI-H520; first compound 0.253 µM) of 0.255 and a relative viability (NCI-H520; first compound 0.8 µM) of 0.235. For the same compound, the relative viability (NCI-H520; first compound 2.53 µM) was 0.212, the relative viability (NCI-H520; first compound 8 µM) was 0.227 and the relative viability (NCI-H1650; first compound 0.08 µM) was 0.459. The relative viability (NCI-H1650; first compound 0.253 µM) was 0.668, the relative viability (NCI-H1650; first compound 0.8 µM) was 0.491 and the relative viability (NCI-H1650; first compound 2.53 µM) was 0.643. It also gave a relative viability (NCI-H1650; first compound 8 µM) of 0.437, a relative viability (NCI-H1793; first compound 0.253 µM) of 0.239 and a relative viability (NCI-H1793; first compound 0.8 µM) of 0.205. The relative viability (NCI-H1793; first compound 2.53 µM) was 0.245, the relative viability (NCI-H1793; first compound 8 µM) was 0.115 and the relative viability (NCI-H2347; first compound 0.253 µM) was 0.497. The relative viability (NCI-H2347; first compound 0.8 µM) was 0.413, the relative viability (NCI-H2347; first compound 2.53 µM) was 0.39 and the relative viability (NCI-H2347; first compound 8 µM) was 0.359. The relative viability (NCI-H1993; first compound 0.08 µM) was 0.562, the relative viability (NCI-H1993; first compound 0.253 µM) was 0.572 and the relative viability (NCI-H1993; first compound 0.8 µM) was 0.539. The relative viability (NCI-H1993; first compound 2.53 µM) was 0.581, the relative viability (NCI-H1993; first compound 8 µM) was 0.479 and the relative viability (NCI-H2228; first compound 0.08 µM) was 0.537. For the same compound, the relative viability (NCI-H2228; first compound 0.253 µM) was 0.644, the relative viability (NCI-H2228; first compound 0.8 µM) was 0.587 and the relative viability (NCI-H2228; first compound 2.53 µM) was 0.451. For the same compound, the relative viability (NCI-H2228; first compound 8 µM) was 0.221, the relative viability (LC-2-ad; first compound 0.08 µM) was 0.694 and the relative viability (LC-2-ad; first compound 0.253 µM) was 0.875. It also gave a relative viability (LC-2-ad; first compound 0.8 µM) of 0.735, a relative viability (LC-2-ad; first compound 2.53 µM) of 0.681 and a relative viability (LC-2-ad; first compound 8 µM) of 0.635. For the same compound, the relative viability (BEN; first compound 0.08 µM) was 0.275, the relative viability (BEN; first compound 0.253 µM) was 0.293 and the relative viability (BEN; first compound 0.8 µM) was 0.307. For the same compound, the relative viability (BEN; first compound 2.53 µM) was 0.321, the relative viability (BEN; first compound 8 µM) was 0.304 and the relative viability (LU99A; first compound 0.08 µM) was 0.277. For the same compound, the relative viability (LU99A; first compound 0.253 µM) was 0.277, the relative viability (LU99A; first compound 0.8 µM) was 0.228 and the relative viability (LU99A; first compound 2.53 µM) was 0.302. It also gave a relative viability (LU99A; first compound 8 µM) of 0.291, a relative viability (NCI-H1355; first compound 0.08 µM) of 0.326 and a relative viability (NCI-H1355; first compound 0.253 µM) of 0.398. For the same compound, the relative viability (NCI-H1355; first compound 0.8 µM) was 0.305, the relative viability (NCI-H1355; first compound 2.53 µM) was 0.357 and the relative viability (NCI-H1355; first compound 8 µM) was 0.34. The relative viability (NCI-H650; first compound 0.08 µM) was 0.536, the relative viability (NCI-H650; first compound 0.253 µM) was 0.555 and the relative viability (NCI-H650; first compound 0.8 µM) was 0.405. The relative viability (NCI-H650; first compound 2.53 µM) was 0.537, the relative viability (NCI-H650; first compound 8 µM) was 0.606 and the relative viability (A-427; first compound 0.08 µM) was 0.433. It also gave a relative viability (A-427; first compound 0.253 µM) of 0.468, a relative viability (A-427; first compound 0.8 µM) of 0.414 and a relative viability (A-427; first compound 2.53 µM) of 0.419. The relative viability (A-427; first compound 8 µM) was 0.406, the relative viability (EKVX; first compound 0.08 µM) was 0.548 and the relative viability (EKVX; first compound 0.253 µM) was 0.733. It also gave a relative viability (EKVX; first compound 0.8 µM) of 0.668, a relative viability (EKVX; first compound 2.53 µM) of 0.637 and a relative viability (EKVX; first compound 8 µM) of 0.647. It also gave a relative viability (NCI-H23; first compound 0.08 µM) of 0.696, a relative viability (NCI-H23; first compound 0.253 µM) of 0.603 and a relative viability (NCI-H23; first compound 0.8 µM) of 0.379. For the same compound, the relative viability (NCI-H23; first compound 2.53 µM) was 0.443, the relative viability (NCI-H23; first compound 8 µM) was 0.477 and the relative viability (NCI-H1666; first compound 0.08 µM) was 0.874. For the same compound, the relative viability (NCI-H1666; first compound 0.253 µM) was 0.832, the relative viability (NCI-H1666; first compound 0.8 µM) was 0.772 and the relative viability (NCI-H1666; first compound 2.53 µM) was 0.699. For the same compound, the relative viability (NCI-H1666; first compound 8 µM) was 0.808, the relative viability (NCI-H838; first compound 0.08 µM) was 0.409 and the relative viability (NCI-H838; first compound 0.253 µM) was 0.388. It also gave a relative viability (NCI-H838; first compound 0.8 µM) of 0.33, a relative viability (NCI-H838; first compound 2.53 µM) of 0.4 and a relative viability (NCI-H838; first compound 8 µM) of 0.353. It also gave a relative viability (SW 1573; first compound 0.08 µM) of 0.611, a relative viability (SW 1573; first compound 0.253 µM) of 0.668 and a relative viability (SW 1573; first compound 0.8 µM) of 0.602. For the same compound, the relative viability (SW 1573; first compound 2.53 µM) was 0.525, the relative viability (SW 1573; first compound 8 µM) was 0.307 and the relative viability (LOU-NH91; first compound 0.08 µM) was 0.442. It also gave a relative viability (LOU-NH91; first compound 0.253 µM) of 0.699, a relative viability (LOU-NH91; first compound 0.8 µM) of 0.638 and a relative viability (LOU-NH91; first compound 2.53 µM) of 0.729. It also gave a relative viability (LOU-NH91; first compound 8 µM) of 0.708, a relative viability (LCLC-97TM1; first compound 0.08 µM) of 0.488 and a relative viability (LCLC-97TM1; first compound 0.253 µM) of 0.363. It also gave a relative viability (LCLC-97TM1; first compound 0.8 µM) of 0.447, a relative viability (LCLC-97TM1; first compound 2.53 µM) of 0.422 and a relative viability (LCLC-97TM1; first compound 8 µM) of 0.278. For the same compound, the relative viability (PC-3 [JPC-3]; first compound 0.08 µM) was 0.338, the relative viability (PC-3 [JPC-3]; first compound 0.253 µM) was 0.739 and the relative viability (PC-3 [JPC-3]; first compound 0.8 µM) was 0.688. For the same compound, the relative viability (PC-3 [JPC-3]; first compound 2.53 µM) was 0.746, the relative viability (PC-3 [JPC-3]; first compound 8 µM) was 0.685 and the relative viability (NCI-H460; first compound 0.08 µM) was 0.755. For the same compound, the relative viability (NCI-H460; first compound 0.253 µM) was 0.66, the relative viability (NCI-H460; first compound 0.8 µM) was 0.708 and the relative viability (NCI-H460; first compound 2.53 µM) was 0.518. The relative viability (NCI-H460; first compound 8 µM) was 0.484, the relative viability (RERF-LC-KJ; first compound 0.08 µM) was 0.509 and the relative viability (RERF-LC-KJ; first compound 0.253 µM) was 0.513. It also gave a relative viability (RERF-LC-KJ; first compound 0.8 µM) of 0.52, a relative viability (RERF-LC-KJ; first compound 2.53 µM) of 0.427 and a relative viability (RERF-LC-KJ; first compound 8 µM) of 0.448. The relative viability (NCI-H1915; first compound 0.08 µM) was 0.6, the relative viability (NCI-H1915; first compound 0.253 µM) was 0.575 and the relative viability (NCI-H1915; first compound 0.8 µM) was 0.384. It also gave a relative viability (NCI-H1915; first compound 2.53 µM) of 0.581 and a relative viability (NCI-H1915; first compound 8 µM) of 0.478.
